The record followed here is paper PMC10578352, “Identification of a Protein Arginine Methyltransferase 7 (PRMT7)/Protein Arginine Methyltransferase 9 (PRMT9) Inhibitor” (Journal of Medicinal Chemistry, 2023).

In general, Kd refers to the equilibrium constant for the complex coming apart.

This assay deals with T1, human recombinant PRMT9 (Homo sapiens, UniProt Q6P2P2).
T1 construct: human recombinant PRMT9 (2–845; N-terminal FLAG-tag, C-terminal His6-tag); FLAG (N); His6 (C); purchased BPS BioScience 79124
T1 sequence (Q6P2P2 2-845): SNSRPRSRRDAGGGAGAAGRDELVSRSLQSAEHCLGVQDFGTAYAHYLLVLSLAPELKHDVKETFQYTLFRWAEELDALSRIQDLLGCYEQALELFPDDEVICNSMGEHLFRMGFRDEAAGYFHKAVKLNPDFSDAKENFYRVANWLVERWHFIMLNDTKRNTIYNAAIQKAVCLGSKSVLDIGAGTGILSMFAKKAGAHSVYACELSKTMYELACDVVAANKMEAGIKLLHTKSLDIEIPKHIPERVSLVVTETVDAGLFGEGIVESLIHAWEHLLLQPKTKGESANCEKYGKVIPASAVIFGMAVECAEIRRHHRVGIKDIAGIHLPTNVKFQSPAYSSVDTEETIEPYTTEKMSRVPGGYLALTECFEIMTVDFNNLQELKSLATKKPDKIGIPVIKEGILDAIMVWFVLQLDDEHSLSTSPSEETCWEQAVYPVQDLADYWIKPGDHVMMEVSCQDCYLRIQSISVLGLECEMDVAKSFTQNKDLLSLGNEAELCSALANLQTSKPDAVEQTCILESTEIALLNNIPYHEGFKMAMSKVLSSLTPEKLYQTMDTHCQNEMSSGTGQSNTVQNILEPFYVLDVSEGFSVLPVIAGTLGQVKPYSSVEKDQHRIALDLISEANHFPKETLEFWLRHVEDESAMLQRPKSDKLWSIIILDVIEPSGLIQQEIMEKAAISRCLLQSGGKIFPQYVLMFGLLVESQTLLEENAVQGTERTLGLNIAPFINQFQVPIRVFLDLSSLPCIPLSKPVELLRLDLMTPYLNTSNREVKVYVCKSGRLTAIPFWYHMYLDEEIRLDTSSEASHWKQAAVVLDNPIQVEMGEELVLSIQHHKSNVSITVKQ
Kind of assay: SPR binding to immobilized PRMT9. As to conditions: 1:1 Langmuir model, 25 °C. On the procedure:
To characterize the effect of compound 1j on PRMT9, we resolved to evaluate its direct binding to the target protein using surface plasmon resonance (SPR). To this aim, human recombinant PRMT9 (2–845; N-terminal FLAG-tag, C-terminal His6-tag) was covalently immobilized on a sensor chip surface using an amine coupling approach and compound 1j was injected over the active and reference cells at 10 different concentrations (2-fold dilution series) from 25 to 0.05 μM using the multicycle modality. Each injection was performed with an association and a dissociation time of 90 and 180 s, respectively, and with a flow rate of 30 μL/min. To reduce false positives from detergent-sensitive, nonspecific aggregation-based binding, detergents (0.05% Tween20) were added to the running buffer in all experiments. The corrected sensorgrams were fitted simultaneously by kinetic analysis using the 1:1 Langmuir model of the BIAevaluation software to obtain equilibrium dissociation constants (KD) and kinetic dissociation (koff) and association (kon) constants, and the curve-fitting efficiency was evaluated by chi-square (χ^2). The χ^2 value of 1j was calculated to be 0.650, indicating a good fit.
SPR experiments were performed on a Biacore T200 biosensor (Cytiva). […] The curve-fitting efficiency was evaluated by the chi-square (χ^2). […]
On the technique in general: In SPR one partner is held on a chip, and binding of the other changes the refractive index at the surface.

On to `COC(=O)c1cc(O)c2cc(NC(=O)NCCCNC(=N)NC[C@H]3O[C@@H](n4cnc5c(N)ncnc54)[C@H](O)[C@@H]3O)cc(C(F)(F)F)c2c1` [1j, Methyl 6-(3-(3-(3-(((2R,3S,4R,5R)-5-(6-Amino-9H-purin-9-yl)-3,4-dihydroxytetrahydrofuran-2-yl)methyl)guanidino)propyl)ureido)-4-hydroxy-8-(trifluoromethyl)-2-naphthoate], for which the “PRMT9 SPR residence time (τR = 1/koff)” value is 500 s. Besides, the Kd (KD = koff/kon) came to 188 nM.
